Patent US20240033263A1, “COMBINATION OF ALDOSE REDUCTASE INHIBITORS AND PROBENECID FOR THE TREATMENT OF DIABETIC COMPLICATIONS” (priority 2021, published 2024)
Like-named read-outs stand apart in the source and are kept apart here. Blank lines part the entries; values can stand above or below the compound they belong to.

How the values were obtained:
[1] = ARI i.v. with probenecid i.p., Sprague-Dawley rats; cited from earlier work
[2] = target: T1, transient receptor potential vanilloid 2 (TRPV2) channel (Homo sapiens, UniProt Q9Y5S1); conditions: cited from earlier work
T1 sequence (Q9Y5S1 1-764): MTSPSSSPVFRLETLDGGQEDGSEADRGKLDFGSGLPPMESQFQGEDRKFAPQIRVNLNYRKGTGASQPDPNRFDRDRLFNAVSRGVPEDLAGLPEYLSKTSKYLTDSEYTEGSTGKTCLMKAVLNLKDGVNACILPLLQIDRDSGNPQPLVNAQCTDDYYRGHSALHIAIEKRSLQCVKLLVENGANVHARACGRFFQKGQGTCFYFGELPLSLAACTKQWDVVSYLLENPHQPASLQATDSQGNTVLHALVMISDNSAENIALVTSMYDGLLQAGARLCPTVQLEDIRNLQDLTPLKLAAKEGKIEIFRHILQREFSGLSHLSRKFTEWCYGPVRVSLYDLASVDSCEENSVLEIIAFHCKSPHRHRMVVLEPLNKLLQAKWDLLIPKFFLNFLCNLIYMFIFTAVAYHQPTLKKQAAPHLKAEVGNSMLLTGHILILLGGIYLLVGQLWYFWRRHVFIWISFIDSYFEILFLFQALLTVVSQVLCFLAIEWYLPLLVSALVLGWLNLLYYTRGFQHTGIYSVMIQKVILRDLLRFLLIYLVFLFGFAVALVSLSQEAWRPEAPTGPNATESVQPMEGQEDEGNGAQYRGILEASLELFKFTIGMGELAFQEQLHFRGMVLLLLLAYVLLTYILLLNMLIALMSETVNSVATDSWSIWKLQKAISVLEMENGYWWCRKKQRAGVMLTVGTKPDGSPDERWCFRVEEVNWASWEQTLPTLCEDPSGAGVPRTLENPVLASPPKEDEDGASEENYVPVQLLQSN

TRPV2 = target: T2, TRPV2 (Mus musculus, UniProt Q9WTR1); conditions: cited from earlier work
T2 construct: TRPV2 is expressed in the murine heart; host or cells: murine heart (in vitro and in vivo)
T2 sequence (Q9WTR1 1-756): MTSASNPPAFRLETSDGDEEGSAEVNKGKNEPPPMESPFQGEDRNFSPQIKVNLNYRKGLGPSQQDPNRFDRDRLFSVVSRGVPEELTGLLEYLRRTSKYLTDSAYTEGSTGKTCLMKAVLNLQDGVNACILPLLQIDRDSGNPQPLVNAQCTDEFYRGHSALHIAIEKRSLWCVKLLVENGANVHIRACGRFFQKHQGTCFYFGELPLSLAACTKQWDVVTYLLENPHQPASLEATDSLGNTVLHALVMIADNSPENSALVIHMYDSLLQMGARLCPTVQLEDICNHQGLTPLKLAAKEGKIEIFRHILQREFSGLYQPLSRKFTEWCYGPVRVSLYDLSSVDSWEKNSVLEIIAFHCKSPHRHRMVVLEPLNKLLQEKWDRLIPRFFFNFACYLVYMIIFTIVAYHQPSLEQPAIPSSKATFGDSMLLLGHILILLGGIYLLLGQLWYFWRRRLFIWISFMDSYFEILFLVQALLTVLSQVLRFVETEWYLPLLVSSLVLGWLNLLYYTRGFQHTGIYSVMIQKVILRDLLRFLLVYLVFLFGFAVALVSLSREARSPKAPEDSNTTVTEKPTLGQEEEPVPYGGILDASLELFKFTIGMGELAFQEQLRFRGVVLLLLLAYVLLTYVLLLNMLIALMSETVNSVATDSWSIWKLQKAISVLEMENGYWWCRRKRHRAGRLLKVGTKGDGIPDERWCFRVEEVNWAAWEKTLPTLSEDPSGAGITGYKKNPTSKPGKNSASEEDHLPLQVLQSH

[3] = animal model, cited from earlier work
[4] = non-diabetic patients with heart failure with reduced ejection fraction; cited from earlier work
[5] = mouse model of peripartum cardiomyopathy; cited from earlier work
[6] = cited from earlier work
[7] = humans, oral route; cited from earlier work
[8] = water; cited from earlier work
[9] = parameters: species or system humans; conditions: in vivo
Description: AT-001 is in clinical development by Applied Therapeutics for treatment of diabetic cardiomyopathy (American Heart Association 2019 Abstract Mo-2278). […] So, AT-001 would be between approximately 7-12 times shorter lived in human plasma compared to the reported human plasma half-life of zopolrestat (vide infra).

[10] = humans, oral, SAD and MAD studies; cited from earlier work
[11] = humans; cited from earlier work

SMILES: O=C(O)CNS(=O)(=O)c1ccc(NC(=O)c2ccccc2)cc1 [N-[4-(benzoylaminophenyl)sulfonyl]glycine]
plasma profiles and pharmacokinetic parameters (AUC, clearance, mean residence time, volume of distribution) [1]: did not alter

SMILES: CCCN(CCC)S(=O)(=O)c1ccc(C(=O)O)cc1 [probenecid, 4-(dipropylsulfamoyl)benzoic acid]
agonism of TRPV2 channel [2]: potent agonist | inotropic response (TRPV2; both in vitro and in vivo): positive inotropic response | cytosolic calcium (Ca2+) concentration (TRPV2; murine heart, TRPV2 activated with probenecid): increases | apoptotic or arrhythmic pathways [3]: does not elicit | myocardial contractility ([3]; via increased calcium cycling on a beat-to-beat basis): increases | cardiac function [4]: improve cardiac function | outcomes [5]: improves outcomes

SMILES: O=C(O)Cc1nn(Cc2nc3cc(C(F)(F)F)ccc3s2)c(=O)c2ccccc12 [zopolrestat]
resting diastolic filling rates ([6]; after 1 year of treatment, either group): no change | exercise LVEF ([6]; after 1 year of zopolrestat treatment, P 0.001): increases | left ventricular stroke volume ([6]; after 1 year of zopolrestat treatment, P 0.004): increases | resting left ventricular ejection fraction (LVEF) ([6]; after 1 year of zopolrestat treatment, P 0.02): increases | cardiac output ([6]; after 1 year of zopolrestat treatment, P 0.03): increases | plasma half-life [7]: 27.5 h

SMILES: CCCN(CCC)S(=O)(=O)c1ccc(C(=O)[O-])cc1.[Na+] [sodium salt of probenecid]
solubility [8]: 77 mg/mL

times shorter lived in human plasma compared to zopolrestat [9]: 7-12 times
SMILES: O=C(O)Cc1nn(Cc2nc3cc(C(F)(F)F)ccc3s2)c(=O)c2nccnc12 [AT-001]
median time of maximum concentration (Tmax) [10]: 1.75 to 3.38 h | plasma half-life [10]: 1.74 to 3.38 h

SMILES: CC(/C=C1\SC(=S)N(CC(=O)O)C1=O)=C\c1ccccc1 [Epalrestat]
plasma half-life [11]: relatively short
